From patent US20260042731A1, “(2,4-DICHLOROPHENOXY)ACETIC ACID ANALOGS” (CORTEVA AGRISCIENCE LLC, priority 2022, published 2026)
Where two headings read alike, the source gives them in different places.

What was measured:
[1] = system: Ambrosia artemisiifolia (AMBEL), common ragweed; test: Postemergence herbicide evaluation, growth of Ambrosia artemisiifolia (AMBEL); type: in vivo; conditions: Ambrosia artemisiifolia, post-emergence, percent reduction in plant size relative to untreated control, read-out: AVE. AMBEL; for pest or weed control at 280 g/ha: 280 g ae/ha; for pest or weed control at 560 g/ha: 560 g ae/ha
[2] = system: Abutilon theophrasti (ABUTH), velvetleaf; test: Postemergence herbicide evaluation, growth of Abutilon theophrasti (ABUTH); type: in vivo; conditions: Abutilon theophrasti, post-emergence, percent reduction in plant size relative to untreated control, read-out: AVE. ABUTH; for pest or weed control at 280 g/ha: 280 g ae/ha; for pest or weed control at 560 g/ha: 560 g ae/ha
[3] = system: glyphosate resistant Conyza canadensis (L.) (ERICA), horseweed; test: Postemergence herbicide evaluation, growth of Conyza canadensis (ERICA); type: in vivo; conditions: Erigeron canadensis, post-emergence, percent reduction in plant size relative to untreated control, read-out: Ave. ERICA; for pest or weed control at 280 g/ha: 280 g ae/ha; for pest or weed control at 560 g/ha: 560 g ae/ha
[4] = system: weeds (ABUTH, AMATA, AMBEL, CHEAL, ERICA); test: Postemergence herbicide evaluation, overall average % weed control across ABUTH, AMATA, AMBEL, CHEAL, ERICA; type: in vivo; conditions: post-emergence, average over the five weeds, read-out: Overall Ave % Weed Control; for pest or weed control at 280 g/ha: 280 g ae/ha; for pest or weed control at 560 g/ha: 560 g ae/ha
[5] = Volatility of compounds measured by thermogravimetric analysis (TGA); type: physicochemical
[6] = system: Chenopodium album (CHEAL), common lambsquarters; test: Postemergence herbicide evaluation, growth of Chenopodium album (CHEAL); type: in vivo; conditions: Chenopodium album, post-emergence, percent reduction in plant size relative to untreated control, read-out: Ave. CHEAL; for pest or weed control at 280 g/ha: 280 g ae/ha; for pest or weed control at 560 g/ha: 560 g ae/ha
[7] = system: Amaranthus rudis (AMATA), tall water hemp; test: Postemergence herbicide evaluation, growth of Amaranthus rudis (AMATA); type: in vivo; conditions: Amaranthus tuberculatus, post-emergence, percent reduction in plant size relative to untreated control, read-out: Ave. AMATA; for pest or weed control at 280 g/ha: 280 g ae/ha; for pest or weed control at 560 g/ha: 560 g ae/ha

| Compound | pest or weed control at 280 g/ha ([1]; 168 h, 7 DAA) [%] | pest or weed control at 560 g/ha ([1]; 168 h, 7 DAA) [%] | pest or weed control at 280 g/ha ([1]; 336 h, 14 DAA) [%] | pest or weed control at 560 g/ha ([1]; 336 h, 14 DAA) [%] | pest or weed control at 280 g/ha ([1]; 504 h, 21 DAA) [%] | pest or weed control at 560 g/ha ([1]; 504 h, 21 DAA) [%] | pest or weed control at 280 g/ha ([2]; 168 h, 7 DAA) [%] | pest or weed control at 560 g/ha ([2]; 168 h, 7 DAA) [%] | pest or weed control at 280 g/ha ([2]; 336 h, 14 DAA) [%] | pest or weed control at 560 g/ha ([2]; 336 h, 14 DAA) [%] | pest or weed control at 280 g/ha ([2]; 504 h, 21 DAA) [%] | pest or weed control at 560 g/ha ([2]; 504 h, 21 DAA) [%] | pest or weed control at 280 g/ha ([3]; 168 h, 7 DAA) [%] | pest or weed control at 560 g/ha ([3]; 168 h, 7 DAA) [%] | pest or weed control at 280 g/ha ([3]; 336 h, 14 DAA) [%] | pest or weed control at 560 g/ha ([3]; 336 h, 14 DAA) [%] | pest or weed control at 280 g/ha ([3]; 504 h, 21 DAA) [%] | pest or weed control at 560 g/ha ([3]; 504 h, 21 DAA) [%] | pest or weed control at 280 g/ha ([4]; 168 h, 7 DAA) [%] | pest or weed control at 560 g/ha ([4]; 168 h, 7 DAA) [%] | further results |
| --- | --- | --- | --- | --- | --- | --- | --- | --- | --- | --- | --- | --- | --- | --- | --- | --- | --- | --- | --- | --- | --- |
| C/C(C/C(C)=N/OC(=O)COc1ccc(Cl)cc1Cl)=N\OC(=O)COc1ccc(Cl)cc1Cl [Compound B6, (2,4)-Pentane-2,4-dione O,O-di(2-(2,4-dichlorophenoxy)acetyl) dioxime] | 68 | 70 | 93 | 93 | 96 | 100 | 78 | 83 | 90 | 86 | 92 | 89 | 68 | 75 | 93 | 88 | 98 | 99 | 72 | 74 | pest or weed control at 280 g/ha ([4]; 336 h, 14 DAA): 88%; pest or weed control at 560 g/ha ([4]; 336 h, 14 DAA): 85%; pest or weed control at 280 g/ha ([4]; 504 h, 21 DAA): 91%; pest or weed control at 560 g/ha ([4]; 504 h, 21 DAA): 89%; TGA Data (rate of weight loss, volatility) [5]: 3.7 µg/min; pest or weed control at 280 g/ha ([6]; 168 h, 7 DAA): 70%; pest or weed control at 560 g/ha ([6]; 168 h, 7 DAA): 70%; pest or weed control at 280 g/ha ([6]; 336 h, 14 DAA): 88%; pest or weed control at 560 g/ha ([6]; 336 h, 14 DAA): 78%; pest or weed control at 280 g/ha ([6]; 504 h, 21 DAA): 93%; pest or weed control at 560 g/ha ([6]; 504 h, 21 DAA): 75%; pest or weed control at 280 g/ha ([7]; 168 h, 7 DAA): 75%; pest or weed control at 560 g/ha ([7]; 168 h, 7 DAA): 73%; pest or weed control at 280 g/ha ([7]; 336 h, 14 DAA): 75%; pest or weed control at 560 g/ha ([7]; 336 h, 14 DAA): 80%; pest or weed control at 280 g/ha ([7]; 504 h, 21 DAA): 75%; pest or weed control at 560 g/ha ([7]; 504 h, 21 DAA): 83% |
| Cn1c(O)c(C(=O)COc2ccc(Cl)cc2Cl)c2ccccc21 [Compound C1, 2-(2,4-Dichlorophenoxy)-1-(2-hydroxy-1-methyl-1H-indol-3-yl)ethanone] | 48 | 0 | 65 | 0 | 65 | 0 | 68 | 0 | 63 | 0 | 63 | 0 | 60 | 0 | 85 | 0 | 90 | 0 | 61 | 0 | pest or weed control at 280 g/ha ([4]; 336 h, 14 DAA): 72%; pest or weed control at 560 g/ha ([4]; 336 h, 14 DAA): 0%; pest or weed control at 280 g/ha ([4]; 504 h, 21 DAA): 72%; pest or weed control at 560 g/ha ([4]; 504 h, 21 DAA): 0%; TGA Data (rate of weight loss, volatility) [5]: 0.7 µg/min; pest or weed control at 280 g/ha ([6]; 168 h, 7 DAA): 68%; pest or weed control at 560 g/ha ([6]; 168 h, 7 DAA): 0%; pest or weed control at 280 g/ha ([6]; 336 h, 14 DAA): 78%; pest or weed control at 560 g/ha ([6]; 336 h, 14 DAA): 0%; pest or weed control at 280 g/ha ([6]; 504 h, 21 DAA): 77%; pest or weed control at 560 g/ha ([6]; 504 h, 21 DAA): 0%; pest or weed control at 280 g/ha ([7]; 168 h, 7 DAA): 63%; pest or weed control at 560 g/ha ([7]; 168 h, 7 DAA): 0%; pest or weed control at 280 g/ha ([7]; 336 h, 14 DAA): 70%; pest or weed control at 560 g/ha ([7]; 336 h, 14 DAA): 0%; pest or weed control at 280 g/ha ([7]; 504 h, 21 DAA): 68%; pest or weed control at 560 g/ha ([7]; 504 h, 21 DAA): 0% |
